Converted amounts (≈) assume the structure as drawn.
Conditions: 25 °C

Row | SMILES | solubility
1 | CCCCCCCl | 0.754 mM (≈ 91 µg/mL)
2 | c1ccc(NNc2ccccc2)cc1 | 1.2 mM (≈ 221 µg/mL)
3 | CCCOC(=O)c1ccccc1 | 2.14 mM (≈ 351 µg/mL)
4 | CCNc1ccccc1 | 19.9 mM (≈ 2410 µg/mL)
5 | Cc1cc(O)ccc1Cl | 26.9 mM (≈ 3830 µg/mL)
6 | CCCCC(=O)OC | 43.6 mM (≈ 5060 µg/mL)
7 | COC(=O)c1ccc(C(=O)OC)cc1 | 0.0978 mM (≈ 19 µg/mL)
8 | CCCCCCl | 1.85 mM (≈ 197 µg/mL)
9 | CCCNCCC | 579 mM (≈ 58600 µg/mL)
10 | Brc1ccc2ccccc2c1 | 0.0398 mM (≈ 8.24 µg/mL)
11 | Nc1cccc(C(F)(F)F)c1 | 33.9 mM (≈ 5450 µg/mL)
12 | Brc1cccc(Br)c1Br | 0.00912 mM (≈ 2.87 µg/mL)
13 | CCC(C)(C)Cl | 3.09 mM (≈ 329 µg/mL)
14 | CC(O)CNCC(C)O (centres undefined) | 6490 mM (≈ 865000 µg/mL)

Source: the OPERA property sets (Mansouri et al. 2018)
